Biological target: T1, laccase derived from Trametes villosa, TvL (Trametes villosa, UniProt Q99044)
T1 construct: purchased Novo Nordisk A/S
T1 sequence (Q99044 22-520): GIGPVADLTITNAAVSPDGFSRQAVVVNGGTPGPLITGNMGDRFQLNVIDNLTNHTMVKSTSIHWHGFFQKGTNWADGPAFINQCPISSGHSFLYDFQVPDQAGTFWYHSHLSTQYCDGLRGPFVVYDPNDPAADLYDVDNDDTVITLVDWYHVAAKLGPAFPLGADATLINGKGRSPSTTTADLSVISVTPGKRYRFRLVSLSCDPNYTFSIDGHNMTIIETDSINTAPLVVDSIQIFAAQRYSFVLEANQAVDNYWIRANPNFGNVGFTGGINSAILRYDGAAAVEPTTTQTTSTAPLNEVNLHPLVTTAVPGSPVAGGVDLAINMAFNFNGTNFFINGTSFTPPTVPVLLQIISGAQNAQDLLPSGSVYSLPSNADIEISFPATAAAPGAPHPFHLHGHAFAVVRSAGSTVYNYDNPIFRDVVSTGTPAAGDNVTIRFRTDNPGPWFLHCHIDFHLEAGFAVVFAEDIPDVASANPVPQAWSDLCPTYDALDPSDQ
Test: Effect of laccase on tobacco constituents, UV/Vis spectra before and after treatment (Example 1)
Assay type: biochemical
Settings: 9 mM Na-acetate buffer pH 5.0; 4.8% Ethanol; 0.025 mg/ml of tobacco constituent; 0.016 mg/ml laccase; spectra 190-700 nm every 20 seconds for 5 minutes
Experimental: Tobacco constituents: Nicotine, Chlorogenic acid, Rutin and Scopoletin. Enzyme: Purified laccase derived from Trametes villosa, TvL. Apparatus: HP8452 UV/Vis diode array spectrophotometer, 1 cm quarts cuvette. Buffer: Sodium acetate (Merck)
10 mM acetate buffer was prepared from sodium acetate adjusted to pH 5.0 with sulphuric acid. Stock solution of 0.50 mg/ml in 96% ethanol was prepared of nicotine, chlorogenic acid, rutin, and scopoletin. A stock solution of 0.31 mg enzyme protein/ml of laccase in de-mineralised water was prepared. The HP diode array spectrophotometer was operated as per the manufacturer's instructions. A 1 cm quartz cuvette was used. As a blank was used 950µl buffer mixed with 50µl 96% ethanol. In a 1 cm quart cuvette was mixed 900µl 10 mM acetate buffer and 50µl of the stock solution of the compound in question. A spectrum of the "native" compound was recorded in the range 190-700 nm. 50µl of TvL stock solution was added and carefully mixed, and spectra in the range 190-700 nm were recorded every 20 seconds for 5 minutes.

COc1cc2ccc(=O)oc2cc1O [S, 7-Hydroxy-6-methoxy-2H-1-benzopyran-2-one]
spectral changes (peak position and peak relative height): significant spectral changes
